In patent US20100087413A1, “Prevention and treatment of inflammation-induced and/or immune-mediated bone loss” (priority 2003, published 2010):

Target: T1, human 11β-HSD1 (Homo sapiens, UniProt P28845)
T1 construct: expressed in transfected cells; host or cells: HEK-293 cells, stably transfected; cell lysate
Test: 11β-HSD1 reductase activity (conversion of radiolabelled cortisone to cortisol) in lysates of stably transfected HEK-293 cells
Format: biochemical
Details: 10 μM CBX, 100 nM cortisone substrate

T1 sequence (P28845 whole entry): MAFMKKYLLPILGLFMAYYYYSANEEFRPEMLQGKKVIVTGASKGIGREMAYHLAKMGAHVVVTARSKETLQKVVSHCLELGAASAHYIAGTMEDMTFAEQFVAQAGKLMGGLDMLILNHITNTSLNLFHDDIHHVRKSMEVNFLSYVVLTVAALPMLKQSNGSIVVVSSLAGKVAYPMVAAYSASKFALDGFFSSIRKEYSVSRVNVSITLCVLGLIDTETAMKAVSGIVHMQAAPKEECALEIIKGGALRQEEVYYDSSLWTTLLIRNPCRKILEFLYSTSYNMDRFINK

CC1(C)[C@@H](OC(=O)CCC(=O)O)CC[C@]2(C)[C@H]3C(=O)C=C4[C@@H]5C[C@@](C)(C(=O)O)CC[C@]5(C)CC[C@@]4(C)[C@]3(C)CC[C@@H]12 [CBX, carbenoxolone]
11β-HSD1 % of control: 4.43 % of control
